The record followed here is US5059625A, “Polyglycidol amine oxide surfactants having antimicrobial activity” (Olin Corporation, priority 1990, dated 1991).

Data set [1] can be described thus: Solubility in 50% sodium hydroxide solution. The format is physicochemical. The procedure:
A 500 ml, 3-necked round bottom flask was fitted with a mechanical stirrer, thermometer, nitrogen inlet, dropping funnel and vent. Under the nitrogen atmosphere, Armeen CD^(1), 15 g (0.075 mole) was placed in the flask and the contents heated to 138° C. Glycidol in an amount of 16.67 g (0.225 mole) was placed in the dropping funnel and glycidol addition to the Armeen CD was initiated at a rate of approximately 0.15 g/minute. Reaction temperature was maintained at 140°-152° C. and glycidol addition was completed in about 2 hours. The reaction mixture was stirred and heated at reaction temperature an additional 2 hours. The flask and its contents were then cooled and the product removed. […] This product was referred to as cocamine 3-mole glycidol adduct and its molecular weight was 422.
All three products were soluble in 50% sodium hydroxide solution.

Data set [2] is described as follows: Surface tension (ASTM Designation D1331-56). The format is physicochemical. As to conditions: 0.1 wt. % concentration; ASTM D1331-56. The source says: The surface tensions (ASTM Designation D1331-56) of the products at 0.1 wt. % concentration were as follows: […]
A further data set deals with A[…] (Fungus). Briefly: Minimum Inhibitory Concentration (MIC) test. The format is cell-based. Particulars: Aspergillus niger (fungus). The procedure: (§1) Minimum Inhibitory Concentration (MIC's) were determined and compared to a nonylphenol-glycidol based surfactant.
The test system of another data set is E[…] (Gram Negative). Description: Minimum Inhibitory Concentration (MIC) test. The format is cell-based. As to conditions: Escheridida coli (Gram negative). The procedure:
as §1

The subject of data set [3] is STAPHYLOCOCCUS AUREUS (Gram positive). Description: Minimum Inhibitory Concentration (MIC) test. In kind it is cell-based. On the procedure:
as §1

Take cocamine 3-mole glycidol adduct: the “solubility in 50% sodium hydroxide solution” value in data set [1] was “soluble and clear”.
As to Armeen CD-3m glycidol amine [Example I], the surface tension in data set [2] was 32.3 dynes/cm. In addition, the “Minimum Inhibitory Concentration” value was determined as 128 PPM in the data set on A[…] (Fungus), 256 PPM with E[…] (Gram Negative) and 32 PPM in data set [3].
